Among the data in patent US11987588B2, “Modulators of the beta-3 adrenergic receptor useful for the treatment or prevention of heart failure and disorders related thereto” (Arena Pharmaceuticals, Inc., priority 2017, dated 2024) are IC50 values, retold here.

This test addresses Beta-3 Adrenergic Receptor (Homo sapiens (Human), UniProt P13945). Nature of the test: Homogeneous Time-Resolved Fluorescence (HTRF) cAMP antagonist assay, IC50 determination. Type of test: cell-based. Conditions: CHO-K1 cells stably expressing recombinant receptor, isoproterenol at EC90. In a few lines: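 CHO-K1 cells stably expressing receptor, 1500 cells/well, preincubated briefly with 10-point 5-fold compound series (top final typically 10 or 100 μM) in PBS with 1 mM IBMX, then challenged with isoproterenol at EC90 for 1 h at room temperature. cAMP read by HTRF against on-plate standard curve; IC50 from dose-response.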

Chain of Beta-3 Adrenergic Receptor (P13945 whole entry, species assumed): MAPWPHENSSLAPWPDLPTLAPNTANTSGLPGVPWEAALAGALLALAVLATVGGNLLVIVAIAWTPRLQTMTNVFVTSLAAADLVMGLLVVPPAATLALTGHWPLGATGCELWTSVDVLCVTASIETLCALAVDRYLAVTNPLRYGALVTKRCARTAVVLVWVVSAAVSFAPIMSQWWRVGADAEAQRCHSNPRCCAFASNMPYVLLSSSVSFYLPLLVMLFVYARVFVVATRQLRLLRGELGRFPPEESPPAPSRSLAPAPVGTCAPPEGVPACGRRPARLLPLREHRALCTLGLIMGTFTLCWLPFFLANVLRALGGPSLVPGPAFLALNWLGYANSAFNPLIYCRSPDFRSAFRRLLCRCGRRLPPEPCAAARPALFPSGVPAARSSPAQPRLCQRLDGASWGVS

What is called IC50 is the concentration that inhibits the measured activity by half. For `O=S(=O)(NC1CCOCC1)c1cccc(OC[C@@H](O)CNC2COC3(CCN(S(=O)(=O)c4ccc5ccccc5c4)CC3)C2)c1` (stereo partly drawn) [Compound 50, 3-((2S)-2-hydroxy-3-(8-(naphthalen-2-ylsulfonyl)-1-oxa-8-azaspiro[4.5]decan-3-ylamino)propoxy)-N-(tetrahydro-2H-pyran-4-yl)benzenesulfonamide], the IC50 came to 87.2 nM. Under `CNS(=O)(=O)c1cccc(OC[C@@H](O)CNC2COC3(CCN(S(=O)(=O)c4cccc(-c5cnn(C)c5)c4)CC3)C2)c1` (stereo partly drawn) [Compound 61, 3-((2S)-2-hydroxy-3-(8-(3-(1-methyl-1H-pyrazol-4-yl)phenylsulfonyl)-1-oxa-8-azaspiro[4.5]decan-3-ylamino)propoxy)-N-methylbenzenesulfonamide] stands 13.5 nM.

Turning to `CCNS(=O)(=O)c1cccc(OC[C@@H](O)CNC2COC3(CCN(S(=O)(=O)c4cccc(Cl)c4)CC3)C2)c1` (stereo partly drawn) [Compound 224, 3-((2S)-3-(8-(3-chlorophenylsulfonyl)-1-oxa-8-azaspiro[4.5]decan-3-ylamino)-2-hydroxypropoxy)-N-ethylbenzenesulfonamide], the IC50 worked out at 33.1 nM.

In the case of `CNS(=O)(=O)c1cccc(OC[C@@H](O)CNC2COC3(CCN(S(=O)(=O)c4cccc(-c5ccc(CN)nc5)c4)CC3)C2)c1` (stereo partly drawn) [Compound 387, 3-((2S)-3-(8-(3-(6-(aminomethyl)pyridin-3-yl)phenylsulfonyl)-1-oxa-8-azaspiro[4.5]decan-3-ylamino)-2-hydroxypropoxy)-N-methylbenzenesulfonamide], the half-maximal inhibitory concentration (IC50) came out at 30.8 nM. Take `CNS(=O)(=O)c1cccc(OC[C@@H](O)CN[C@H]2COC3(CCN(S(=O)(=O)c4cnc5nc(C)[nH]c5c4)CC3)C2)c1` [Compound 486, 3-((S)-2-hydroxy-3-((R)-8-(2-methyl-1H-imidazo[4,5-b]pyridin-6-ylsulfonyl)-1-oxa-8-azaspiro[4.5]decan-3-ylamino)propoxy)-N-methylbenzenesulfonamide]: the IC50 came out at 41.5 nM. For the compound `C[C@@H](NS(=O)(=O)c1cccc(OC[C@@H](O)CNC2COC3(CCN(S(=O)(=O)c4ccc5ccccc5c4)CC3)C2)c1)C1CC1` (stereo partly drawn) [Compound 93, N—((R)-1-cyclopropylethyl)-3-((2S)-2-hydroxy-3-(8-(naphthalen-2-ylsulfonyl)-1-oxa-8-azaspiro[4.5]decan-3-ylamino)propoxy)benzenesulfonamide], the IC50 was determined as 112 nM. Under `CNS(=O)(=O)c1cccc(OC[C@@H](O)CNC2COC3(CCN(S(=O)(=O)c4cccc(-c5cn(C)nc5C(F)(F)F)c4)CC3)C2)c1` (stereo partly drawn) [Compound 62, 3-((2S)-2-hydroxy-3-(8-(3-(1-methyl-3-(trifluoromethyl)-1H-pyrazol-4-yl)phenylsulfonyl)-1-oxa-8-azaspiro[4.5]decan-3-ylamino)propoxy)-N-methylbenzenesulfonamide] stands 44.9 nM; under `CNS(=O)(=O)c1cccc(OC[C@@H](O)CNC2COC3(CCN(S(=O)(=O)c4cc(Br)ccc4C)CC3)C2)c1` (stereo partly drawn) [Compound 237, 3-((2S)-3-(8-(5-bromo-2-methylphenylsulfonyl)-1-oxa-8-azaspiro[4.5]decan-3-ylamino)-2-hydroxypropoxy)-N-methylbenzenesulfonamide], 42.8 nM; under `CNS(=O)(=O)c1cccc(OC[C@@H](O)CN[C@@H]2COC3(CCN(S(=O)(=O)c4cccc5nsnc45)CC3)C2)c1` [Compound 244, 3-((S)-3-((S)-8-(benzo[c][1,2,5]thiadiazol-4-ylsulfonyl)-1-oxa-8-azaspiro[4.5]decan-3-ylamino)-2-hydroxypropoxy)-N-methylbenzenesulfonamide], 76.1 nM. Take `CNS(=O)(=O)c1cccc(OC[C@@H](O)CNC2COC3(CCN(S(=O)(=O)c4cn(C)c(C)n4)CC3)C2)c1` (stereo partly drawn) [Compound 119, 3-((2S)-3-(8-(1,2-dimethyl-1H-imidazol-4-ylsulfonyl)-1-oxa-8-azaspiro[4.5]decan-3-ylamino)-2-hydroxypropoxy)-N-methylbenzenesulfonamide]: the IC50 was determined as 203 nM. Turning to `CNS(=O)(=O)c1cccc(OC[C@@H](O)CN[C@H]2COC3(CCN(S(=O)(=O)c4ccc5c(c4)N(C)CCO5)CC3)C2)c1` [Compound 300, 3-((S)-2-hydroxy-3-((R)-8-(4-methyl-3,4-dihydro-2H-benzo[b][1,4]oxazin-6-ylsulfonyl)-1-oxa-8-azaspiro[4.5]decan-3-ylamino)propoxy)-N-methylbenzenesulfonamide], the IC50 was 10.9 nM. Regarding `CNS(=O)(=O)c1cccc(OC[C@@H](O)CNC2COC3(CCN(S(=O)(=O)c4ccc(C#N)cc4Cl)CC3)C2)c1` (stereo partly drawn) [Compound 157, 3-((2S)-3-(8-(2-chloro-4-cyanophenylsulfonyl)-1-oxa-8-azaspiro[4.5]decan-3-ylamino)-2-hydroxypropoxy)-N-methylbenzenesulfonamide], the IC50 was determined as 26.4 nM. In the case of `CNS(=O)(=O)c1cccc(OC[C@@H](O)CNC2COC3(CCN(S(=O)(=O)c4cccc(-c5cnn(CC(C)C)c5)c4)CC3)C2)c1` (stereo partly drawn) [Compound 81, 3-((2S)-2-hydroxy-3-(8-(3-(1-isobutyl-1H-pyrazol-4-yl)phenylsulfonyl)-1-oxa-8-azaspiro[4.5]decan-3-ylamino)propoxy)-N-methylbenzenesulfonamide], the IC50 stood at 16.6 nM. `CNS(=O)(=O)c1cccc(OC[C@@H](O)CNC2COC3(CCN(S(=O)(=O)c4cc(Br)ccc4OC)CC3)C2)c1` (stereo partly drawn) [Compound 220, 3-((2S)-3-(8-(5-bromo-2-methoxyphenylsulfonyl)-1-oxa-8-azaspiro[4.5]decan-3-ylamino)-2-hydroxypropoxy)-N-methylbenzenesulfonamide]: the IC50 came to 19.1 nM.

Turning to `CNS(=O)(=O)c1cccc(OC[C@@H](O)CNC2COC3(CCN(S(=O)(=O)c4ccc(N5CCOCC5)nc4)CC3)C2)c1` (stereo partly drawn) [Compound 406, 3-((2S)-2-hydroxy-3-(8-(6-morpholinopyridin-3-ylsulfonyl)-1-oxa-8-azaspiro[4.5]decan-3-ylamino)propoxy)-N-methylbenzenesulfonamide], the IC50 is 31.1 nM. The same measure for `CCNS(=O)(=O)c1cccc(OC[C@@H](O)CNC2COC3(CCN(S(=O)(=O)c4ccc(Br)c(C)c4)CC3)C2)c1` (stereo partly drawn) [Compound 227, 3-((2S)-3-(8-(4-bromo-3-methylphenylsulfonyl)-1-oxa-8-azaspiro[4.5]decan-3-ylamino)-2-hydroxypropoxy)-N-ethylbenzenesulfonamide]: 31.3 nM. Regarding `CNS(=O)(=O)c1cccc(OC[C@@H](O)CN[C@H]2COC3(CCN(S(=O)(=O)c4ccc5c(c4)NC(=O)CO5)CC3)C2)c1` [Compound 279, 3-((S)-2-hydroxy-3-((R)-8-(3-oxo-3,4-dihydro-2H-benzo[b][1,4]oxazin-6-ylsulfonyl)-1-oxa-8-azaspiro[4.5]decan-3-ylamino)propoxy)-N-methylbenzenesulfonamide], the IC50 was determined as 31.6 nM. `CNS(=O)(=O)c1cccc(OC[C@@H](O)CNC2COC3(CCN(S(=O)(=O)c4cc5c(nc4Cl)OCCN5C)CC3)C2)c1` (stereo partly drawn) [Compound 400, 3-((2S)-3-(8-(6-chloro-1-methyl-2,3-dihydro-1H-pyrido[2,3-b][1,4]oxazin-7-ylsulfonyl)-1-oxa-8-azaspiro[4.5]decan-3-ylamino)-2-hydroxypropoxy)-N-methylbenzenesulfonamide]: the IC50 was determined as 33.1 nM.
